Consider 33 compounds from US11261186B2, “Biaryl derivative as GPR120 agonist” (LG CHEM, LTD., priority 2014, dated 2022).

This experiment addresses T1, hGPR120 (Homo sapiens, UniProt Q5NUL3).
T1 construct: expressed in transfected cells; host or cells: CHO-K1
T1 sequence (Q5NUL3 1-361): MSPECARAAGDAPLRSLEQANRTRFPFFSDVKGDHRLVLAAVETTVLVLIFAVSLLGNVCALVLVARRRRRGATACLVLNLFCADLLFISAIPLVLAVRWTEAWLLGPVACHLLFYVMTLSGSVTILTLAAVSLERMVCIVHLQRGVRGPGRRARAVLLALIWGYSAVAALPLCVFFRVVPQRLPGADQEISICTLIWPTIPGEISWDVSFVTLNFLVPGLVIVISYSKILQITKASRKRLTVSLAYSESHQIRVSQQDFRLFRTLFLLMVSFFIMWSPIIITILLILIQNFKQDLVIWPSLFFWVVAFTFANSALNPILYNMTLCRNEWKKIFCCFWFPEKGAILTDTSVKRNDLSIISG
Briefly: Measurement of Activity of GPR120 Agonist (Cell-Based Assay), Calcium 5 dye fluorescence. The note with it: CHO-K1 cells expressing Ga16 and hGPR120. In a few lines:
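Gα16/hGPR120 CHO-K1; 18 h plating, 37 °C, 5% CO2; Calcium 5 dye load 1 h; agonist serial dilution, 0.5% DMSO final; fluor Ex485/Em525; response as % of 1% DMSO vehicle.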
For `CCOc1cncc(-c2cc(F)c(N3CCC(CC(=O)O)C3)c(F)c2)n1` (stereo not drawn) [Example 585, {1-[4-(6-ethoxy-pyrazin-2-yl)-2,6-difluoro-phenyl]-pyrrolidin-3-yl}-acetic acid], the concentration for a half-maximal effect (EC50) is below 200 nM. Regarding `CC(C)Oc1cncc(-c2cc(F)c(N3CCC(CC(=O)O)C3)c(F)c2)n1` (stereo not drawn) [Example 586, {1-[2,6-difluoro-4-(6-isopropoxy-pyrazin-2-yl)-phenyl]-pyrrolidin-3-yl}-acetic acid], the concentration for a half-maximal effect (EC50) is below 200 nM. With `Cc1cc(OC(C)C)nc(-c2cc(F)c(N3CCC(CC(=O)O)C3)c(F)c2)n1` (stereo not drawn) [Example 587, {1-[2,6-difluoro-4-(4-isopropoxy-6-methyl-pyrimidin-2-yl)-phenyl]-pyrrolidin-3-yl}-acetic acid], the EC50 lay in the range of 200 to 2000 nM. On to `CCCOc1cc(C)nc(-c2cc(F)c(N3CCC(CC(=O)O)C3)c(F)c2)n1` (stereo not drawn) [Example 589, {1-[2,6-difluoro-4-(4-methyl-6-propoxy-pyrimidin-2-yl)-phenyl]-pyrrolidin-3-yl}-acetic acid], for which the concentration for a half-maximal effect (EC50) is below 200 nM. On to `CCOc1cc(C)nc(-c2cc(F)c(N3CCC(CC(=O)O)C3)c(F)c2)n1` (stereo not drawn) [Example 590, {1-[4-(4-ethoxy-6-methyl-pyrimidin-2-yl)-2,6-difluoro-phenyl]-pyrrolidin-3-yl}-acetic acid], for which the EC50 is below 200 nM. Consider `Cc1nsc(OC2CCC2)c1-c1cc(F)c(N2CCC(CC(=O)O)C2)c(F)c1` (stereo not drawn) [Example 591, {1-[4-(5-cyclobutoxy-3-methyl-isothiazol-4-yl)-2,6-difluoro-phenyl]-pyrrolidin-3-yl}-acetic acid], for which the EC50 is below 200 nM. With `O=C(O)CC1CCN(c2c(F)cc(-c3ncc(F)c(OC4CCC4)n3)cc2F)C1` (stereo not drawn) [Example 592, {1-[4-(4-cyclobutoxy-5-fluoro-pyrimidin-2-yl)-2,6-difluoro-phenyl]-pyrrolidin-3-yl}-acetic acid] the figure was 200 to 2000 nM; with `O=C(O)CC1CCN(c2c(F)cc(-c3ncc(F)c(OCC4CC4)n3)cc2F)C1` (stereo not drawn) [Example 593, {1-[4-(4-cyclopropylmethoxy-5-fluoro-pyrimidin-2-yl)-2,6-difluoro-phenyl]-pyrrolidin-3-yl}-acetic acid], 200 to 2000 nM. As for `CC(C)COc1nc(-c2cc(F)c(N3CCC(CC(=O)O)C3)c(F)c2)ncc1F` (stereo not drawn) [Example 594, {1-[2,6-difluoro-4-(5-fluoro-4-isobutoxy-pyrimidin-2-yl)-phenyl]-pyrrolidin-3-yl}-acetic acid], the EC50 was in the range of 200 to 2000 nM. Take `COCCCOc1cccc(-c2cc(F)c(N3CCC(CC(=O)O)C3)c(F)c2)n1` (stereo not drawn) [Example 595, (1-{2,6-difluoro-4-[6-(3-methoxy-propoxy)-pyridin-2-yl]-phenyl}-pyrrolidin-3-yl)-acetic acid]: the EC50 was 200 to 2000 nM. For `O=C(O)CC1CCN(c2c(F)cc(-c3cccc(OC4CCSCC4)n3)cc2F)C1` (stereo not drawn) [Example 596], the concentration for a half-maximal effect (EC50) fell in the range of 200 to 2000 nM. With `CC(C)COc1nc(-c2cc(F)c(N3CCC(CC(=O)O)CC3)c(F)c2)ncc1F` [Example 597, {1-[2,6-difluoro-4-(5-fluoro-4-isobutoxy-pyrimidin-2-yl)-phenyl]-piperidin-4-yl}-acetic acid] the figure was 200 to 2000 nM; with `CCCOc1nc(-c2cc(F)c(N3CCC(CC(=O)O)CC3)c(F)c2)ncc1F` [Example 598, {1-[2,6-difluoro-4-(5-fluoro-4-propoxy-pyrimidin-2-yl)-phenyl]-piperidin-4-yl}-acetic acid], below 200 nM. With `CC(C)CCOc1ccnc(-c2cc(F)c(N3CCC(CC(=O)O)CC3)c(F)c2)n1` [Example 599, (1-{2,6-difluoro-4-[4-(3-methyl-butoxy)-pyrimidin-2-yl]-phenyl}-piperidin-4-yl)-acetic acid] the figure was 200 to 2000 nM; with `COCCCOc1ccnc(-c2cc(F)c(N3CCC(CC(=O)O)CC3)c(F)c2)n1` [Example 600, (1-{2,6-difluoro-4-[4-(3-methoxy-propoxy)-pyrimidin-2-yl]-phenyl}-piperidin-4-yl)-acetic acid], 200 to 2000 nM. Turning to `COCCCOc1cc(C)nc(-c2cc(F)c(N3CCC(CC(=O)O)CC3)c(F)c2)n1` [Example 601, (1-{2,6-difluoro-4-[4-(3-methoxy-propoxy)-6-methyl-pyrimidin-2-yl]-phenyl}-piperidin-4-yl)-acetic acid], the concentration for a half-maximal effect (EC50) is 200 to 2000 nM. For the compound `COCCOc1cc(C)nc(-c2cc(F)c(N3CCC(CC(=O)O)CC3)c(F)c2)n1` [Example 602, (1-{2,6-difluoro-4-[4-(2-methoxy-ethoxy)-6-methyl-pyrimidin-2-yl]-phenyl}-piperidin-4-yl)-acetic acid], the EC50 was in the range of 200 to 2000 nM.

Take `O=C(O)C[C@@H]1CCN(c2c(F)cc(-c3cccc(OCC4CC4)n3)cc2F)C1` [Example 604, {(S)-1-[4-(6-cyclopropylmethoxy-pyridin-2-yll)-2,6-difluoro-phenyl]-pyrrolidin-3-yl}-acetic acid]: the 50% effective concentration (EC50) was below 200 nM.

`CCc1ccc(Oc2ccnc(-c3cc(F)c(N4CCC(CC(=O)O)CC4)c(F)c3)n2)cc1` [Example 606, 2-[1-[2,6-difluoro-4-[6-(4-ethylphenoxy)pyrimidin-2-yl]phenyl]-4-piperidyl]acetic acid]: the half-maximal effective concentration (EC50) lay in the range of 200 to 2000 nM. `O=C(O)CC1CCN(c2c(F)cc(-c3nccc(Oc4cccc(F)c4)n3)cc2F)CC1` [Example 607, 2-[1-[4-[4-(3-fluorophenoxy)pyrimidin-2-yl]-2,6-difluoro-phenyl]-4-piperidyl]acetic acid]: the EC50 is below 200 nM.

With `Cc1cc(Oc2ccc(F)c(F)c2)nc(-c2cc(F)c(N3CCC(CC(=O)O)CC3)c(F)c2)n1` [Example 608, 2-[1-[2,6-difluoro-4-[4-(3,4-fluorophenoxy)-6-methyl-pyrimidin-2-yl]phenyl]-4-piperidyl]acetic acid], the concentration giving a half-maximal response (EC50) was in the range of 200 to 2000 nM. As for `O=C(O)CC1CCN(c2c(F)cc(-c3nccc(Oc4ccccn4)n3)cc2F)CC1` [Example 609, 2-[1-[2,6-difluoro-4-[4-(2-pyridyloxy)pyrimidin-2-yl]phenyl]-4-piperidyl]acetic acid], the EC50 was in the range of 200 to 2000 nM. As to `O=C(O)CC1CCN(c2c(F)cc(-c3nccc(Oc4ccc(C(F)(F)F)cc4)n3)cc2F)CC1` [Example 610, 2-[1-[2,6-difluoro-4-[4-[4-(trifluoromethyl)phenoxy]pyrimidin-2-yl]phenyl]-4-piperidyl]acetic acid], the EC50 is 200 to 2000 nM.

Regarding `O=C(O)CC1CCN(c2c(F)cc(-c3nccc(Oc4cccc(C(F)(F)F)c4)n3)cc2F)CC1` [Example 611, 2-[1-[2,6-difluoro-4-[4-[3-(trifluoromethyl)phenoxy]pyrimidin-2-yl]phenyl]-4-piperidyl]acetic acid], the EC50 is 200 to 2000 nM. For the compound `Cc1cc(Oc2ccc(C(F)(F)F)cc2)nc(-c2cc(F)c(N3CCC(CC(=O)O)CC3)c(F)c2)n1` [Example 612, 2-[1-[2,6-difluoro-4-[4-methyl-6-[4-(trifluoromethyl)phenoxy]pyrimidin-2-yl]phenyl]-4-piperidyl]acetic acid], the EC50 fell in the range of 2000 to 20000 nM. To `Cc1cc(Oc2cccc(C(F)(F)F)c2)nc(-c2cc(F)c(N3CCC(CC(=O)O)CC3)c(F)c2)n1` [Example 613, 2-[1-[2,6-difluoro-4-[4-methyl-6-[3-(trifluoromethyl)phenoxy]pyrimidin-2-yl]phenyl]-4-piperidyl]acetic acid] belongs 2000 to 20000 nM; to `O=C(O)CC1CCN(c2c(F)cc(-c3cc(C(F)(F)F)cc(OC4CCC4)n3)cc2F)CC1` [Example 614, {1-[4-(6-cyclobutoxy-4-trifluoromethyl-pyridin-2-yl)-2,6-difluoro-phenyl]-piperidin-4-yl}-acetic acid], 2000 to 20000 nM; to `O=C(O)CC1CCN(c2c(F)cc(-c3cccc4sc(-c5ccc(F)cc5)cc34)cc2F)CC1` [Example 615, (1-{2,6-difluoro-4-[2-(4-fluoro-phenyl)-benzo[b]thiophen-4-yl]-phenyl}-piperidin-4-yl)-acetic acid], 2000 to 20000 nM. On to `Cc1cccc(-c2cc3c(-c4cc(F)c(N5CCC(CC(=O)O)CC5)c(F)c4)cccc3s2)c1` [Example 616, {1-[2,6-difluoro-4-(2-m-tolyl-benzo[b]thiophen-4-yl)-phenyl]-piperidin-4-yl}-acetic acid], for which the concentration for a half-maximal effect (EC50) lay within 200 to 2000 nM. Consider `O=C(O)CC1CCN(c2c(F)cc(-c3nc(OC4CCC4)cc(C(F)(F)F)n3)cc2F)CC1` [Example 617, {1-[4-(4-cyclobutoxy-6-trifluoromethyl-pyrimidin-2-yl)-2,6-difluoro-phenyl]-piperidin-4-yl}-acetic acid], for which the 50% effective concentration (EC50) is above 20000 nM. With `CCCOc1cc(C(F)(F)F)nc(-c2cc(F)c(N3CCC(CC(=O)O)CC3)c(F)c2)n1` [Example 618, {1-[2,6-difluoro-4-(4-propoxy-6-trifluoromethyl-pyrimidin-2-yl)-phenyl]-piperidin-4-yl}-acetic acid] the figure was 2000 to 20000 nM. As to `O=C(O)CC1CCN(c2c(F)cc(-c3nc(Oc4ccc(F)cc4)cc(C(F)(F)F)n3)cc2F)CC1` [Example 619, (1-{2,6-difluoro-4-[4-(4-fluoro-phenoxy)-6-trifluoromethyl-pyrimidin-2-yl]-phenyl}-piperidin-4-yl)-acetic acid], the EC50 was in the range of 2000 to 20000 nM. With `CCCOc1cccc(-c2cc(F)c(N3CCC(CCC(=O)O)CC3)c(F)c2)n1` [Example 620, 3-{1-[2,6-difluoro-4-(6-propoxy-pyridin-2-yl)-phenyl]-piperidin-4-yl}-propionic acid] the figure was 200 to 2000 nM.

The term EC50 denotes the concentration needed to bring the measured effect to its halfway point.
